This is an account of results in patent US20070191372A1, “Dna-targeted benzotriazine 1,4-dioxides and their use in cancer therapy” (Auckland Uniservices Limited, priority 2002, published 2007).

The test system of data set [1] is murine SCCVII. The data set can be described thus: Clonogenic assay under aerobic and hypoxic conditions, SCCVII. Conditions: SCVIII cells; for IC90: Mus musculus, 1 h, hypoxic, 60 min drug exposure, SN (hypoxic), read-out: C10 hypoxic; for HCR: ratio of C10 under aerobic and hypoxic conditions; for RHT: ratio of hypoxic TPZ C10 to hypoxic compound C10. It is filed as cell-based. The method, then: Evaluation of the Cytotoxicity of Compounds by Clonogenic Assay Under Aerobic and Hypoxic Conditions.
Compounds representative of the invention were evaluated under both aerobic and hypoxic conditions in clonogenic assays, using three cell lines: human colon carcinoma HT-29, murine SCCVII, and human lung adenocarcinoma LXFL. Clonogenic survival was determined using aerobic and hypoxic SCCVII cell suspensions. Drug exposures were performed using continuously stirred and gassed single cell suspensions (10^6 cells/mL) at 37° C., equilibrated with 5% CO2 in air or N2 for 60 min before drug addition. After a 60 min drug exposure cells were washed by centrifugation and plated to determine colony formation Cytotoxicity was measured as the concentration required to reduce plating efficiency to 10% of controls (C10). The hypoxic cytotoxicity ratio (HCR) was determined as the ratio of the C10 values under aerobic and hypoxic conditions. The relative hypoxic toxicity (RHT) was determined as the ratio of hypoxic TPZ C10 to hypoxic BTO C10. Abbreviations used in Table 2 are:
C10=The concentration of drug (in micromolar) to reduce viable cell numbers to 10% of those of control cell cultures grown under the same conditions but not exposed to drug
(§1) RHT=Relative hypoxic toxicity is defined as the ratio of concentrations of Tirapazamine/test compound to give equal cell killing under hypoxic conditions.
HCR=Hypoxic cytotoxicity ratio is defined as the ratio of drug concentrations under aerobic and hypoxic condition to produce equal cell survival (10%) determined by clonogenic assay

Data set [2] has as its system human colon carcinoma HT-29. The data set can be described thus: Proliferation assay (IC50) under aerobic and hypoxic conditions, HT-29. Conditions: for RHT: HT-29, ratio Tirapazamine/test compound under hypoxic conditions; for HCR: HT-29, ratio of IC50 under aerobic and hypoxic conditions; for IC50: Homo sapiens, HT-29, hypoxic (anoxia <0.001% O2), 4 h exposure. The data set is classed as cell-based. As to the method:
(§2) Evaluation of the Cytotoxicity of Compounds by Proliferation Assay (IC50) Under Aerobic and Hypoxic Conditions.
(§3) Compounds representative of the invention were evaluated under both aerobic and hypoxic conditions in a proliferation assay (IC50), using two cell lines: human colon carcinoma HT-29, and human cervical carcinoma SiHa.
(§4) Drug exposures were performed in 96-well plates (Nunc) using either a 37° C. humidified incubator (20% O2, 5% CO2) or in the incubator compartment (37° C.) of an anaerobic chamber (Shell Lab) where palladium catalyst scrubbed gas (90% N2, 5% H2, 5% CO2) ensures severe anoxia (<0.001% O2). For each experiment, compounds were simultaneously tested under both oxic and hypoxic conditions against the HT-29 cell line and included TPZ as an independent internal control at the front and back of the assay (n=2). Final data was pooled from a series of seven independent experiments and is calculated using inter-experimental means. In all cases, 8-methyl-5-nitroquinoline was used as a second internal control to confirm that strict hypoxia was present during the experiment. (Siim et al. Br. J. Cancer 1994, 70, 596-603). Cell cultures were grown in αMEM (Gibco) containing 5% heat inactivated FCS and maintained in exponential growth phase. For each individual experiment an appropriate number of cells were seeded (HT-29=1000) into wells in αMEM÷10% FCS+10 mM added glucose+100 μM 2′-deoxycytidine (2′dCyd), and allowed to attach for 3 h. High glucose (final concentration 17 mM) and the presence of 2′-dCyd minimize hypoxia-induced cell cycle arrest. Replicates were then exposed to BTOs, using 2-fold serial dilutions in triplicate, for a further 4 h. Subsequently cells were washed free of compound using complete media (without glucose/2′-dCyd) and allowed to grow for 5 (oxic) or 6 (anoxic) days. Plates were stained as described previously (Wilson et al., J. Med. Chem. 1989, 32, 31-38) and IC50 values determined.
(§5) IC50=The concentration of drug (in micromolar) to reduce viable cell numbers to 50% of those of control cell cultures grown under the same conditions but not exposed to drug
as §1
(§6) HCR=Hypoxic cytotoxicity ratio is defined as the ratio of drug concentrations under aerobic and hypoxic condition to produce equal cell survival (50%) determined by proliferation assay

Data set [3] has as its system human cervical carcinoma SiHa. As to the kind of experiment: Proliferation assay (IC50) under aerobic and hypoxic conditions, SiHa. The data set is classed as cell-based. The conditions noted are these: for IC50: Homo sapiens, hypoxic, 4 h exposure; for RHT: ratio Tirapazamine/test compound under hypoxic conditions; for HCR: ratio of IC50 under aerobic and hypoxic conditions. The method, then:
as §2, §3, §4, §5, §1, §6

Structures can show the parent of a compound that is named as a salt.

In turn, `Cc1cccc2nc3cccc(C(=O)NCCCNCCCNc4n[n+]([O-])c5ccccc5[n+]4[O-])c3nc12.Cl` gave a melting point of 183 to 186 °C.

In the case of `O=C(NCCCNc1n[n+]([O-])c2ccccc2[n+]1[O-])c1cccc2cc3ccccc3nc12` (as salt: hydrochloride) [Compound 17, N-{3-[(1,4-Dioxido-1,2,4-benzotriazin-3-yl)amino]propyl}-4-acridinecarboxamide], the melting point worked out at 192 °C.

`CN(CCCNC(=O)c1cccc2nc3ccccc3nc12)CCCc1n[n+]([O-])c2ccccc2[n+]1[O-]` (as salt: hydrochloride) [Compound 63, N-{3-[[3-(1,4-Dioxido-1,2,4-benzotriazin-3-yl)propyl](methyl)amino]propyl}-1-phenazinecarboxamide] came in with a melting point of 173 °C.

For the compound `O=C(NCCCCCCNc1n[n+]([O-])c2ccccc2[n+]1[O-])c1cccc2cc3ccccc3nc12` [Compound 12, N-{6-[(1,4-Dioxido-1,2,4-benzotriazin-3-yl)amino]hexyl}-4-acridinecarboxamide], the melting point was 196 to 198 °C.

As for `O=C(NCCCCCCNc1n[n+]([O-])c2ccccc2[n+]1[O-])c1ccnc2ccccc12` [Compound 13, N-{6-[(1,4-Dioxido-1,2,4-benzotriazin-3-yl)amino]hexyl}-4-quinolinecarboxamide], the melting point was 196 to 198 °C.

As for `O=C(NCCCNc1n[n+]([O-])c2ccccc2[n+]1[O-])c1cccc2cc3ccccc3nc12` [Compound 17, N-{3-[(1,4-Dioxido-1,2,4-benzotriazin-3-yl)amino]propyl}-4-acridinecarboxamide], in data set [1], the IC90 was found to be 4800 nM, the HCR is given as more than 6.3 and the RHT was 1.94.

Turning to `O=C(NCCOCCNc1n[n+]([O-])c2ccccc2[n+]1[O-])c1cccc2cccnc12` [Compound 24, N-(2-{2-[(1,4-Dioxido-1,2,4-benzotriazin-3-yl)amino]ethoxy}ethyl)-8-quinolinecarboxamide], the melting point was 168 to 170 °C.

With `O=C(NCCOCCNc1n[n+]([O-])c2ccccc2[n+]1[O-])c1cccc2[nH]c(-c3ccccc3)nc12` [Compound 25, N-(2-{2-[(1,4-Dioxido-1,2,4-benzotriazin-3-yl)amino]ethoxy}ethyl)-2-phenyl-1H-benzimidazole-4-carboxamide], the melting point was in the range of 203 to 207 °C.

Turning to `O=C(NCCOCCNc1n[n+]([O-])c2ccccc2[n+]1[O-])c1cccc2ccc(-c3ccncc3)nc12` [Compound 26, N-(2-{2-[(1,4-Dioxido-1,2,4-benzotriazin-3-yl)amino]ethoxy}ethyl)-2-(4-pyridinyl)-8-quinolinecarboxamide], the melting point was 128 to 130 °C.

As for `O=C(NCCNCCNc1n[n+]([O-])c2ccccc2[n+]1[O-])c1cccc2cc3ccccc3nc12` [Compound 37, N-[2-({2-[(1,4-Dioxido-1,2,4-benzotriazin-3-yl)amino]ethyl}amino)ethyl]-4-acridinecarboxamide], in data set [2], the RHT is given as 74, the HCR came to 160 and it took 79 nM to reach half-maximal inhibition (IC50).

For `CN(CCCNC(=O)c1cccc2cccnc12)CCCNc1n[n+]([O-])c2ccccc2[n+]1[O-]` [Compound 42, N-{3-[{3-[(1,4-Dioxido-1,2,4-benzotriazin-3-yl)amino]propyl}(methyl)amino]propyl}-8-quinolinecarboxamide], in data set [2], the RHT was determined as 11.2, the HCR is listed as 86.2 and the IC50 amounted to 517 nM.

With `CN(CCCNC(=O)c1cccc2ccc(-c3ccncc3)nc12)CCCNc1n[n+]([O-])c2ccccc2[n+]1[O-]` [Compound 43, N-{3-[{3-[(1,4-dioxido-1,2,4-benzotriazin-3-yl)amino]propyl}(methyl)amino]-propyl}-2-(4-pyridyl)-8-quinolinecarboxamide], in data set [1], the IC90 came to 1400 nM, the HCR is on record as 10 and the RHT amounted to 5.7. Moreover, in data set [2], the RHT is reported as 51.4, the HCR stood at 119 and the IC50 amounted to 113 nM.

On to `Cc1cccc2cc3cccc(C(=O)NCCCN(C)CCCNc4n[n+]([O-])c5ccccc5[n+]4[O-])c3nc12` [Compound 44, N-{3-[{3-[(1,4-dioxido-1,2,4-benzotriazin-3-yl)amino]propyl}(methyl)amino]-propyl}-5-methyl-4-acridinecarboxamide], for which, in data set [1], the IC90 turned out to be 160 nM, the HCR was more than 187 and the RHT amounted to 56.3. In addition, in data set [2], the RHT is recorded as 25.7, the HCR came out at 72.7 and the IC50 turned out to be 226 nM.

In the case of `COCCOc1ccc2c(c1)[n+]([O-])nc(NCCCN(C)CCCNC(=O)c1cccc3cc4ccccc4nc13)[n+]2[O-]` [Compound 55, N-{3-[(3-{[7-(2-Methoxyethoxy)-1,4-dioxido-1,2,4-benzotriazin-3-yl]amino}propyl)(methyl)amino]propyl}-4-acridinecarboxamide], in data set [1], the IC90 was determined as 1100 nM, the HCR stood at 63.6 and the RHT amounted to 10. In data set [2], the RHT amounted to 47, the HCR stood at 97 and half-maximal inhibition (IC50) was put at 124 nM. For the same compound, in data set [3], the concentration for half-maximal inhibition (IC50) was 50 nM, the RHT turned out to be 72 and the HCR is given as 124.

Regarding `CN(CCCNC(=O)c1cccc2cc3ccccc3nc12)CCCc1n[n+]([O-])c2ccccc2[n+]1[O-]` [Compound 62, N-{3-[[3-(1,4-dioxido-1,2,4-benzotriazin-3-yl)propyl](methyl)amino]propyl}-4-acridinecarboxamide], in data set [2], the RHT came to 274, the HCR came to 157 and the concentration for half-maximal inhibition (IC50) came out at 21 nM.

Regarding `CN(CCCNC(=O)c1cccc2nc3ccccc3nc12)CCCc1n[n+]([O-])c2ccccc2[n+]1[O-]` [Compound 63, N-{3-[[3-(1,4-Dioxido-1,2,4-benzotriazin-3-yl)propyl](methyl)amino]propyl}-1-phenazinecarboxamide], in data set [2], the RHT was determined as 167; the HCR was found to be 129; the midpoint of inhibition, the IC50, lay at 34 nM.

Take `O=C(CCNc1ccnc2cc(Cl)ccc12)NCCCNc1n[n+]([O-])c2ccccc2[n+]1[O-]` [Compound 65, 3-[(7-Chloro-4-quinolinyl)amino]-N-{3-[(1,4-dioxido-1,2,4-benzotriazin-3-yl)amino]propyl}propanamide]: the melting point was 202 °C (dec.).

Take `Cc1ccc2c(c1)[n+]([O-])c(NCCCN(C)CCCNC(=O)c1cccc3cc4ccccc4nc13)n[n+]2[O-]` [Compound 85, N-[3-(Methyl{3-[(6-methyl-1,4-dioxido-1,2,4-benzotriazin-3-yl)amino]propyl}amino)propyl]-4-acridinecarboxamide]: in data set [2], the RHT amounted to 26, the HCR came to 134 and the 50% inhibitory concentration (IC50) stood at 222 nM.

For `CN(CCNC(=O)c1cccc2cc3ccccc3nc12)CCNc1n[n+]([O-])c2ccccc2[n+]1[O-]` [Compound 95, N-{2-[{2-[(1,4-Dioxido-1,2,4-benzotriazin-3-yl)amino]ethyl}(methyl)amino]ethyl}-4-acridinecarboxamide], in data set [1], the IC90 turned out to be 1000 nM, the HCR was 400 and the RHT is 11. Besides, in data set [2], the RHT is 71, the HCR is listed as 74 and half-maximal inhibition (IC50) required 180 nM. Also, in data set [3], the 50% inhibitory concentration (IC50) was determined as 76 nM, the RHT turned out to be 48 and the HCR is on record as 89.

Broadly, the melting point is the temperature, or range, at which the solid turns liquid. Usually IC50 stands for the concentration needed to halve the response being measured. Higher therefore signals weaker potency.
